Where “and” joins values, the source holds several entries; their conditions need not be identical. Identical values can stand only once. Inconclusive results and toxic doses are left out.

For the experiment, the system named is L1210 leukemia ip in BDF1 mice, survival T/C. Put plainly: NCI In Vivo Anticancer Drug Screen. Data for tumor model L1210 Leukemia (intraperitoneal) in B6D2F1 (BDF1) mice. The note with it: endpoint: mean survival time, higher = longer survival. The gist of the method:
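Transplanted-tumor mice were given test agent; controls received vehicle only. Survival readings from the two groups were divided (treated over control).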

The mark [1] stands for this setting: dose: 100.0 mg/kg/injection, schedule: Q01DX009 (ip), vehicle: saline.
Where [2] appears, read: dose: 200.0 mg/kg/injection, schedule: Q01DX009 (ip), vehicle: saline.
Setting [3] is: dose: 100.0 mg/kg/injection, schedule: Q01DX001 (ip), vehicle: carboxymethylcellulose (CMC).
The mark [4] stands for this setting: dose: 200.0 mg/kg/injection, schedule: Q01DX001 (ip), vehicle: carboxymethylcellulose (CMC).
Where [5] appears, read: dose: 400.0 mg/kg/injection, schedule: Q01DX001 (ip), vehicle: carboxymethylcellulose (CMC).
Where [6] appears, read: dose: 100.0 mg/kg/injection, schedule: Q01DX001 (ip), vehicle: Klucel (hydroxypropylcellulose) (HPC).
[7] abbreviates: dose: 200.0 mg/kg/injection, schedule: Q01DX001 (ip), vehicle: Klucel (hydroxypropylcellulose) (HPC).
The mark [8] stands for this setting: dose: 400.0 mg/kg/injection, schedule: Q01DX001 (ip), vehicle: Klucel (hydroxypropylcellulose) (HPC).

Consider `COC(=O)C(C)CN1CC(C)OC(C)C1` (stereo not drawn), for which the T/C reads like this: under setting [1], 95 % of control; (dose: 100.0 mg/kg/injection, schedule: Q04DX003 (ip), vehicle: saline) 102 % of control; under setting [2], 97 % of control; (dose: 200.0 mg/kg/injection, schedule: Q04DX003 (ip), vehicle: saline) 98 % of control; (dose: 400.0 mg/kg/injection, schedule: Q01DX009 (ip), vehicle: saline) 95 % of control; (dose: 400.0 mg/kg/injection, schedule: Q04DX003 (ip), vehicle: saline) 104 % of control.
With `N#CC1(N(O)C(=O)Nc2ccccc2Cl)CCCCC1`, the T/C was 100 % of control under setting [3], 96 % of control under setting [4] and 91 % of control under setting [5].
As for `[O-]/[N+](C/[N+]([O-])=N\OCCCl)=N\OCCCl`, the T/C was 91 % of control under setting [6], 91 % of control under setting [7] and 91 % of control under setting [8].
With `Cc1cc(OCC#CCN(C)c2ccccc2)ccc1Cl`, the T/C runs as follows: (dose: 100.0 mg/kg/injection, schedule: Q04DX002 (ip), vehicle: Klucel (hydroxypropylcellulose) (HPC)) 89 % of control; (dose: 200.0 mg/kg/injection, schedule: Q04DX002 (ip), vehicle: Klucel (hydroxypropylcellulose) (HPC)) 99 % of control; (dose: 400.0 mg/kg/injection, schedule: Q04DX002 (ip), vehicle: Klucel (hydroxypropylcellulose) (HPC)) 96 % of control.
On to `O=C(OCC1OC(n2cnc3c(=S)nc[nH]c32)C(OC(=O)c2ccccc2)C1OC(=O)c1ccccc1)c1ccccc1` (stereo not drawn), for which the T/C (dose: 25.0 mg/kg/injection, schedule: Q01DX009 (ip), vehicle: saline) was 118 % of control; the T/C (dose: 25.0 mg/kg/injection, schedule: Q01DX Z (ip), vehicle: saline) is 109 % of control; the T/C (dose: 39.0 mg/kg/injection, schedule: Q01DX Z (ip), vehicle: carboxymethylcellulose (CMC)) is 124 % of control; the T/C (dose: 50.0 mg/kg/injection, schedule: Q01DX Z (ip), vehicle: saline) was 117 % of control; the T/C (dose: 88.0 mg/kg/injection, schedule: Q01DX Z (ip), vehicle: carboxymethylcellulose (CMC)) is 118 % of control; the T/C under setting [1] was 168 % of control. Also, the T/C reads like this: (dose: 110.0 mg/kg/injection, schedule: Q01DX009 (ip), vehicle: saline) 123 % of control; (dose: 220.0 mg/kg/injection, schedule: Q01DX009 (ip), vehicle: saline) 150 % of control; (dose: 222.0 mg/kg/injection, schedule: Q01DX Z (ip), vehicle: saline) 95 % of control; (dose: 300.0 mg/kg/injection, schedule: Q01DX Z (ip), vehicle: carboxymethylcellulose (CMC)) 150 % of control and 168 % of control; (dose: 300.0 mg/kg/injection, schedule: Q01DX Z (ip), vehicle: methylcellulose (MC)) 112 % of control; (dose: 450.0 mg/kg/injection, schedule: Q01DX Z (ip), vehicle: carboxymethylcellulose (CMC)) 171 % of control. The T/C runs as follows: (dose: 450.0 mg/kg/injection, schedule: Q01DX Z (ip), vehicle: methylcellulose (MC)) 97 % of control; (dose: 600.0 mg/kg/injection, schedule: Q01DX001 (ip), vehicle: saline) 120 % of control; (dose: 675.0 mg/kg/injection, schedule: Q01DX Z (ip), vehicle: carboxymethylcellulose (CMC)) 100 % of control and 109 % of control; (dose: 1007.0 mg/kg/injection, schedule: Q01DX Z (ip), vehicle: carboxymethylcellulose (CMC)) 93 % of control; (dose: 1510.0 mg/kg/injection, schedule: Q01DX Z (ip), vehicle: carboxymethylcellulose (CMC)) 90 % of control.
For the compound `COC(=O)C1CN=NC1C(=O)OC` (stereo not drawn), the T/C reads like this: (dose: 100.0 mg/kg/injection, schedule: Q04DX003 (ip), vehicle: acetone) 98 % of control; (dose: 200.0 mg/kg/injection, schedule: Q04DX003 (ip), vehicle: acetone) 96 % of control; (dose: 400.0 mg/kg/injection, schedule: Q04DX003 (ip), vehicle: acetone) 101 % of control.
As to `CCOC(=O)COC`, the T/C by setting is: (dose: 50.0 mg/kg/injection, schedule: Q01DX009 (ip), vehicle: saline) 100 % of control; under setting [1], 96 % of control; under setting [2], 89 % of control.
With `CSc1nc2nc[nH]c(=O)c2cc1C#N`, the T/C runs as follows: under setting [6], 91 % of control; under setting [7], 96 % of control; under setting [8], 106 % of control.
As to `CCC(C)(CO)N=Cc1ccccc1O.CCC(C)(O)/N=C/c1ccccc1O.[Cu].[Cu]` (stereo not drawn), the T/C runs as follows: (dose: 9.5 mg/kg/injection, schedule: Q01DX001 (ip), vehicle: other) 100 % of control; (dose: 19.0 mg/kg/injection, schedule: Q01DX001 (ip), vehicle: other) 97 % of control; (dose: 38.0 mg/kg/injection, schedule: Q01DX001 (ip), vehicle: other) 86 % of control.
Take `CCCC(N)C(=O)O` (stereo not drawn): the T/C by setting is: under setting [6], 106 % of control; under setting [7], 103 % of control; under setting [8], 95 % of control.
As for `O=C(O)C(Cl)C(=O)O`, the T/C is, setting by setting: (dose: 4.68 mg/kg/injection, schedule: Q01DX009 (ip), vehicle: saline) 102 % of control; (dose: 9.37 mg/kg/injection, schedule: Q01DX009 (ip), vehicle: saline) 102 % of control; (dose: 18.75 mg/kg/injection, schedule: Q01DX009 (ip), vehicle: saline) 94 % of control; (dose: 18.75 mg/kg/injection, schedule: Q04DX003 (ip), vehicle: saline) 105 % of control; (dose: 37.5 mg/kg/injection, schedule: Q04DX003 (ip), vehicle: saline) 97 % of control; (dose: 75.0 mg/kg/injection, schedule: Q01DX001 (ip), vehicle: saline) 107 % of control.
In the case of `CCCCCCCCCCCCCCCCCBr`, the T/C is, setting by setting: (dose: 50.0 mg/kg/injection, schedule: Q01DX001 (ip), vehicle: carboxymethylcellulose (CMC)) 110 % of control; under setting [3], 95 % of control; under setting [4], 93 % of control; under setting [5], 95 % of control.
Take `Cc1ccc(S(=O)(=O)NC(CC(C)C)C(=O)O)cc1` (stereo not drawn): the T/C (dose: 100.0 mg/kg/injection, schedule: Q01DX001 (ip), vehicle: other) is 101 % of control; the T/C (dose: 200.0 mg/kg/injection, schedule: Q01DX001 (ip), vehicle: other) is 96 % of control; the T/C (dose: 400.0 mg/kg/injection, schedule: Q01DX001 (ip), vehicle: other) is 98 % of control.
With `CSc1nc2ncncc2c(=O)[nH]1`, the T/C reads like this: under setting [6], 96 % of control; (dose: 100.0 mg/kg/injection, schedule: Q01DX009 (ip), vehicle: Klucel (hydroxypropylcellulose) (HPC)) 98 % of control; under setting [7], 100 % of control; (dose: 200.0 mg/kg/injection, schedule: Q01DX009 (ip), vehicle: Klucel (hydroxypropylcellulose) (HPC)) 102 % of control; under setting [8], 101 % of control; (dose: 400.0 mg/kg/injection, schedule: Q01DX009 (ip), vehicle: Klucel (hydroxypropylcellulose) (HPC)) 95 % of control.
In the case of `COc1ccc(-n2c(=O)c(N=Nc3ccc(Br)cc3)c(O)n(-c3ccccc3Cl)c2=S)cc1`, the T/C (dose: 37.5 mg/kg/injection, schedule: Q01DX001 (ip), vehicle: Klucel (hydroxypropylcellulose) (HPC)) was 110 % of control; the T/C (dose: 75.0 mg/kg/injection, schedule: Q01DX001 (ip), vehicle: Klucel (hydroxypropylcellulose) (HPC)) is 104 % of control; the T/C (dose: 150.0 mg/kg/injection, schedule: Q01DX001 (ip), vehicle: Klucel (hydroxypropylcellulose) (HPC)) was 95 % of control.
On to `O=C(NCC1=NCCN1)c1ccccc1`, for which the T/C was 96 % of control (dose: 100.0 mg/kg/injection, schedule: Q04DX002 (ip), vehicle: saline); 89 % of control (dose: 200.0 mg/kg/injection, schedule: Q04DX002 (ip), vehicle: saline); 96 % of control (dose: 400.0 mg/kg/injection, schedule: Q04DX002 (ip), vehicle: saline).
As for `OC1CCOC1` (stereo not drawn), the T/C was 98 % of control (dose: 100.0 mg/kg/injection, schedule: Q01DX009 (ip), vehicle: saline with Tween-80); 97 % of control (dose: 200.0 mg/kg/injection, schedule: Q01DX009 (ip), vehicle: saline with Tween-80); 98 % of control (dose: 400.0 mg/kg/injection, schedule: Q01DX009 (ip), vehicle: saline with Tween-80).
With `O/N=C(\c1ccccc1)C(c1ccccc1)C(Cl)(Cl)Cl` (stereo not drawn), the T/C (dose: 100.0 mg/kg/injection, schedule: Q04DX003 (ip), vehicle: saline with Tween-80) is 86 % of control; the T/C (dose: 200.0 mg/kg/injection, schedule: Q04DX003 (ip), vehicle: saline with Tween-80) is 88 % of control; the T/C (dose: 400.0 mg/kg/injection, schedule: Q04DX003 (ip), vehicle: saline with Tween-80) is 88 % of control.
